Measured values: the supplement of paper PMC10307832

What was measured:
Experiment in all cases: relative viability (nuclei count vs DMSO), 5 days (fraction); higher = more cells survive
[1] = compound: Cn1cncc1[C@@](N)(c1ccc(Cl)cc1)c1ccc2c(c1)c(-c1cccc(Cl)c1)cc(=O)n2C [Tipifarnib] + CC(=O)c1c(C)c2cnc(Nc3ccc(N4CCNCC4)cn3)nc2n(C2CCCC2)c1=O [Palbociclib] (partner 0.5 µM)
Procedure, shortened: (§1)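 A single step with final 0.05% Triton X-100, 1% formaldehyde and 1 ug/ml Hoechst fixed the cells and stained nuclei 5 days after treatment. Lung cancer cell lines in 1536-well plates had been treated by pin tool the day after seeding with one drug alone or a fixed anchor-drug dose plus five library-drug doses (not always all listed) in √10 steps, and nuclei were counted on 4× images. Relative viability is the ratio of nuclei in treated wells to nuclei in vehicle wells, taken as the median of duplicate plates.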

[2] = compound: Cn1cncc1[C@@](N)(c1ccc(Cl)cc1)c1ccc2c(c1)c(-c1cccc(Cl)c1)cc(=O)n2C [Tipifarnib] + Cc1nc(NC(=O)N2CCC[C@H]2C(N)=O)sc1-c1ccnc(C(C)(C)C(F)(F)F)c1 [Alpelisib] (partner 2 µM)
Procedure, shortened: as §1

[3] = compound: Cn1cncc1[C@@](N)(c1ccc(Cl)cc1)c1ccc2c(c1)c(-c1cccc(Cl)c1)cc(=O)n2C [Tipifarnib] + Nc1nc2[nH]cc(CCc3ccc(C(=O)N[C@@H](CCC(=O)O)C(=O)O)cc3)c2c(=O)[nH]1 [Pemetrexed] (partner 0.2 µM)
Procedure, shortened: as §1

[4] = compound: Cn1cncc1[C@@](N)(c1ccc(Cl)cc1)c1ccc2c(c1)c(-c1cccc(Cl)c1)cc(=O)n2C [Tipifarnib] + O=C(c1cc(Cc2n[nH]c(=O)c3ccccc23)ccc1F)N1CCN(C(=O)C2CC2)CC1 [Olaparib] (partner 8 µM)
Procedure, shortened: as §1

NCI-H2405
relative viability ([1]; first compound 0.01 µM): 0.562
relative viability ([1]; first compound 0.03162 µM): 0.517
relative viability ([1]; first compound 0.1 µM): 0.525
relative viability ([1]; first compound 0.3162 µM): 0.492
relative viability ([1]; first compound 1 µM): 0.517
relative viability ([2]; first compound 0.01 µM): 0.863
relative viability ([2]; first compound 0.03162 µM): 0.832
relative viability ([2]; first compound 0.1 µM): 0.7
relative viability ([2]; first compound 0.3162 µM): 0.718
relative viability ([2]; first compound 1 µM): 0.72
relative viability ([3]; first compound 0.01 µM): 1.03
relative viability ([3]; first compound 0.03162 µM): 1.07
relative viability ([3]; first compound 0.1 µM): 0.964
relative viability ([3]; first compound 0.3162 µM): 0.967
relative viability ([3]; first compound 1 µM): 0.866
relative viability ([4]; first compound 0.01 µM): 0.88
relative viability ([4]; first compound 0.03162 µM): 0.899
relative viability ([4]; first compound 0.1 µM): 0.903
relative viability ([4]; first compound 0.3162 µM): 0.801
relative viability ([4]; first compound 1 µM): 0.838

NCI-H3122
relative viability ([1]; first compound 0.01 µM): 0.193
relative viability ([1]; first compound 0.03162 µM): 0.189
relative viability ([1]; first compound 0.1 µM): 0.196
relative viability ([1]; first compound 0.3162 µM): 0.179
relative viability ([1]; first compound 1 µM): 0.14
relative viability ([2]; first compound 0.01 µM): 0.665
relative viability ([2]; first compound 0.03162 µM): 0.598
relative viability ([2]; first compound 0.1 µM): 0.527
relative viability ([2]; first compound 0.3162 µM): 0.402
relative viability ([2]; first compound 1 µM): 0.401
relative viability ([3]; first compound 0.01 µM): 0.205
relative viability ([3]; first compound 0.03162 µM): 0.204
relative viability ([3]; first compound 0.1 µM): 0.199
relative viability ([3]; first compound 0.3162 µM): 0.188
relative viability ([3]; first compound 1 µM): 0.188
relative viability ([4]; first compound 0.01 µM): 0.685
relative viability ([4]; first compound 0.03162 µM): 0.681
relative viability ([4]; first compound 0.1 µM): 0.482
relative viability ([4]; first compound 0.3162 µM): 0.422
relative viability ([4]; first compound 1 µM): 0.415

PC-3 [JPC-3]
relative viability ([1]; first compound 0.01 µM): 0.458
relative viability ([1]; first compound 0.03162 µM): 0.553
relative viability ([1]; first compound 0.1 µM): 0.642
relative viability ([1]; first compound 0.3162 µM): 0.497
relative viability ([1]; first compound 1 µM): 0.495
relative viability ([2]; first compound 0.01 µM): 1.04
relative viability ([2]; first compound 0.03162 µM): 1
relative viability ([2]; first compound 0.1 µM): 0.816
relative viability ([2]; first compound 0.3162 µM): 0.78
relative viability ([2]; first compound 1 µM): 0.662
relative viability ([3]; first compound 0.01 µM): 1
relative viability ([3]; first compound 0.03162 µM): 1.11
relative viability ([3]; first compound 0.1 µM): 0.592
relative viability ([3]; first compound 0.3162 µM): 0.448
relative viability ([3]; first compound 1 µM): 0.42
relative viability ([4]; first compound 0.01 µM): 1.19
relative viability ([4]; first compound 0.03162 µM): 0.978
relative viability ([4]; first compound 0.1 µM): 0.981
relative viability ([4]; first compound 0.3162 µM): 0.775
relative viability ([4]; first compound 1 µM): 0.654

PC-14
relative viability ([1]; first compound 0.01 µM): 0.42
relative viability ([1]; first compound 0.03162 µM): 0.346
relative viability ([1]; first compound 0.1 µM): 0.226
relative viability ([1]; first compound 0.3162 µM): 0.15
relative viability ([1]; first compound 1 µM): 0.163
relative viability ([2]; first compound 0.01 µM): 0.99
relative viability ([2]; first compound 0.03162 µM): 0.774
relative viability ([2]; first compound 0.1 µM): 0.653
relative viability ([2]; first compound 0.3162 µM): 0.392
relative viability ([2]; first compound 1 µM): 0.451
relative viability ([3]; first compound 0.01 µM): 0.123
relative viability ([3]; first compound 0.03162 µM): 0.154
relative viability ([3]; first compound 0.1 µM): 0.157
relative viability ([3]; first compound 0.3162 µM): 0.146
relative viability ([3]; first compound 1 µM): 0.149
relative viability ([4]; first compound 0.01 µM): 0.278
relative viability ([4]; first compound 0.03162 µM): 0.206
relative viability ([4]; first compound 0.1 µM): 0.279
relative viability ([4]; first compound 0.3162 µM): 0.176
relative viability ([4]; first compound 1 µM): 0.176
